Measured values taken from patent publication US11759462B2, “Spirocyclic compounds as tryptophan hydroxylase inhibitors” (priority 2013, dated 2023).

target: T1, Recombinant human TPH1 (MBP tagged) (Homo sapiens, UniProt P17752); test: TPH1 in vitro inhibition assay (kinetic fluorescence); type: biochemical; conditions: read-out: TPH1 Range (TPH1 inhibition IC50)
T1 construct: cloning full length human TPH1 cDNA in to a bacterial pMAL-c5E expression vector; made in house; host or cells: E. coli BL21 (DE3)
T1 sequence (P17752 1-444): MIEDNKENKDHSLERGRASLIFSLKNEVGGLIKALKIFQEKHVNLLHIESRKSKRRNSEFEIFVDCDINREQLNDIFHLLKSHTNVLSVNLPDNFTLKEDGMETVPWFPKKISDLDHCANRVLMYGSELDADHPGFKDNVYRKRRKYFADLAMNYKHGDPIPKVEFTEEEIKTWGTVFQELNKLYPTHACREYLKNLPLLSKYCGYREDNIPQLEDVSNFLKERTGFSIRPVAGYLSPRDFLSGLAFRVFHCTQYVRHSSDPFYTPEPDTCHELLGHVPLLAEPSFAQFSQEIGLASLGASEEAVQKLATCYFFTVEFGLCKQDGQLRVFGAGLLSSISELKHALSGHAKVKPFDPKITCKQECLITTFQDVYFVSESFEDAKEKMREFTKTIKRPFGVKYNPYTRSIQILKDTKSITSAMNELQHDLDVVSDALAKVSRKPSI
Summary of the method: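 Final mix: 15 nM MBP-TPH1, 30 μM Trp, 36 μM 6-methyltetrahydropterin, 25 μM ferrous ammonium sulfate, 50 mM MES pH 7.1, 1% DMSO, room temperature.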

Row | IC50 [nM] | Structure (SMILES)
1 | < 50 | C=Cc1ccc(-n2ccc(C)n2)c([C@@H](Oc2cc(N3CCC4(CC3)CN[C@H](C(=O)O)C4)nc(N)n2)C(F)(F)F)c1 [Example 19a, (S)-8-(2-amino-6-((R)-2,2,2-trifluoro-1-(2-(3-methyl-1H-pyrazol-1-yl)-5-vinylphenyl)ethoxy)pyrimidin-4-yl)-2,8-diazaspiro[4.5]decane-3-carboxylic acid]
2 | < 50 | C/C=C/c1ccc(-n2ccc(C)n2)c([C@@H](Oc2cc(N3CCC4(CC3)CN[C@H](C(=O)O)C4)nc(N)n2)C(F)(F)F)c1 [Example 19b, (S)-8-(2-amino-6-((R)-2,2,2-trifluoro-1-(2-(3-methyl-1H-pyrazol-1-yl)-5-((E)-prop-1-en-1-yl)phenyl)ethoxy)pyrimidin-4-yl)-2,8-diazaspiro[4.5]decane-3-carboxylic acid]
3 | < 50 | CC/C=C/c1ccc(-n2ccc(C)n2)c([C@@H](Oc2cc(N3CCC4(CC3)CN[C@H](C(=O)O)C4)nc(N)n2)C(F)(F)F)c1 [Example 19c, (S)-8-(2-amino-6-((R)-1-(5-((E)-but-1-en-1-yl)-2-(3-methyl-1H-pyrazol-1-yl)phenyl)-2,2,2-trifluoroethoxy)pyrimidin-4-yl)-2,8-diazaspiro[4.5]decane-3-carboxylic acid]
4 | 50 to 300 | Cc1ccn(-c2ccc(/C=C/C(=O)O)cc2[C@@H](Oc2cc(N3CCC4(CC3)CN[C@H](C(=O)O)C4)nc(N)n2)C(F)(F)F)n1 [Example 19d, (S)-8-(2-amino-6-((R)-1-(5-((E)-2-carboxyvinyl)-2-(3-methyl-1H-pyrazol-1-yl)phenyl)-2,2,2-trifluoroethoxy)pyrimidin-4-yl)-2,8-diazaspiro[4.5]decane-3-carboxylic acid]
5 | < 50 | Cc1ccn(-c2ccc(-c3ccc(C)c(C)c3)cc2[C@@H](Oc2cc(N3CCC4(CC3)CN[C@H](C(=O)O)C4)nc(N)n2)C(F)(F)F)n1 [Example 19e, (S)-8-(2-amino-6-((R)-1-(3′,4′-dimethyl-4-(3-methyl-1H-pyrazol-1-yl)-[1,1′-biphenyl]-3-yl)-2,2,2-trifluoroethoxy)pyrimidin-4-yl)-2,8-diazaspiro[4.5] decane-3-carboxylic acid]
6 | < 50 | Cc1ccn(-c2ccc(-c3cccc(C(=O)O)c3)cc2[C@@H](Oc2cc(N3CCC4(CC3)CN[C@H](C(=O)O)C4)nc(N)n2)C(F)(F)F)n1 [Example 19f, (S)-8-(2-amino-6-((R)-1-(3′-carboxy-4-(3-methyl-1H-pyrazol-1-yl)-[1,1′-biphenyl]-3-yl)-2,2,2-trifluoroethoxy)pyrimidin-4-yl)-2,8-diazaspiro[4.5] decane-3-carboxylic acid]
7 | < 50 | Cc1ccn(-c2ccc(-c3ccc(C(=O)O)cc3)cc2[C@@H](Oc2cc(N3CCC4(CC3)CN[C@H](C(=O)O)C4)nc(N)n2)C(F)(F)F)n1 [Example 19g, (S)-8-(2-amino-6-((R)-1-(4′-carboxy-4-(3-methyl-1H-pyrazol-1-yl)-[1,1′-biphenyl]-3-yl)-2,2,2-trifluoroethoxy)pyrimidin-4-yl)-2,8-diazaspiro[4.5] decane-3-carboxylic acid]
8 | < 50 | Cc1ccn(-c2ccc(-c3cccc(/C=C/C(=O)O)c3)cc2[C@@H](Oc2cc(N3CCC4(CC3)CN[C@H](C(=O)O)C4)nc(N)n2)C(F)(F)F)n1 [Example 19h, (S)-8-(2-amino-6-((R)-1-(3′-((E)-2-carboxyvinyl)-4-(3-methyl-1H-pyrazol-1-yl)-[1,1′-biphenyl]-3-yl)-2,2,2-trifluoroethoxy)pyrimidin-4-yl)-2,8-diazaspiro[4.5] decane-3-carboxylic acid]
9 | < 50 | Cc1ccn(-c2ccc(-c3ccc(/C=C/C(=O)O)cc3)cc2[C@@H](Oc2cc(N3CCC4(CC3)CN[C@H](C(=O)O)C4)nc(N)n2)C(F)(F)F)n1 [Example 19i, (S)-8-(2-amino-6-((R)-1-(4′-((E)-2-carboxyvinyl)-4-(3-methyl-1H-pyrazol-1-yl)-[1,1′-biphenyl]-3-yl)-2,2,2-trifluoroethoxy)pyrimidin-4-yl)-2,8-diazaspiro[4.5] decane-3-carboxylic acid]
10 | < 50 | Cc1ccn(-c2ccc(-c3cccc(CCC(=O)O)c3)cc2[C@@H](Oc2cc(N3CCC4(CC3)CN[C@H](C(=O)O)C4)nc(N)n2)C(F)(F)F)n1 [Example 19j, (S)-8-(2-amino-6-((R)-1-(3′-(2-carboxyethyl)-4-(3-methyl-1H-pyrazol-1-yl)-[1,1′-biphenyl]-3-yl)-2,2,2-trifluoroethoxy)pyrimidin-4-yl)-2,8-diazaspiro[4.5] decane-3-carboxylic acid]

Further lines, the molecule ahead of its results:

Row | Structure (SMILES) | IC50 [nM]
11 | Cc1ccn(-c2cc(C(=O)OC(C)(C(F)(F)F)C(F)(F)F)ccc2[C@@H](Oc2cc(N3CCC4(CC3)CN[C@H](C(=O)O)C4)nc(N)n2)C(F)(F)F)n1 [Example 18a, (S)-8-(2-amino-6-((R)-2,2,2-trifluoro-1-(4-(((1,1,1,3,3,3-hexafluoro-2-methylpropan-2-yl)oxy)carbonyl)-2-(3-methyl-1H-pyrazol-1-yl)phenyl)ethoxy)pyrimidin-4-yl)-2,8-diazaspiro[4.5]decane-3-carboxylic acid] | 50 to 300
12 | CCCOC(=O)c1ccc([C@@H](Oc2cc(N3CCC4(CC3)CN[C@H](C(=O)O)C4)nc(N)n2)C(F)(F)F)c(-n2ccc(C)n2)c1 [Example 18b, (S)-8-(2-amino-6-((R)-2,2,2-trifluoro-1-(2-(3-methyl-1H-pyrazol-1-yl)-4-(propoxycarbonyl)phenyl)ethoxy)pyrimidin-4-yl)-2,8-diazaspiro[4.5]decane-3-carboxylic acid] | < 50
13 | CCCCOC(=O)c1ccc([C@@H](Oc2cc(N3CCC4(CC3)CN[C@H](C(=O)O)C4)nc(N)n2)C(F)(F)F)c(-n2ccc(C)n2)c1 [Example 18c, (S)-8-(2-amino-6-((R)-1-(4-(butoxycarbonyl)-2-(3-methyl-1H-pyrazol-1-yl)phenyl)-2,2,2-trifluoroethoxy)pyrimidin-4-yl)-2,8-diazaspiro[4.5]decane-3-carboxylic acid] | < 50
14 | Cc1ccn(-c2cc(C(=O)OC(C)(C)C)ccc2[C@@H](Oc2cc(N3CCC4(CC3)CN[C@H](C(=O)O)C4)nc(N)n2)C(F)(F)F)n1 [Example 18d, (S)-8-(2-amino-6-((R)-1-(4-(tert-butoxycarbonyl)-2-(3-methyl-1H-pyrazol-1-yl)phenyl)-2,2,2-trifluoroethoxy)pyrimidin-4-yl)-2,8-diazaspiro[4.5]decane-3-carboxylic acid] | < 50
15 | Cc1ccn(-c2cc(C(=O)OCC(C)C)ccc2[C@@H](Oc2cc(N3CCC4(CC3)CN[C@H](C(=O)O)C4)nc(N)n2)C(F)(F)F)n1 [Example 18e, (S)-8-(2-amino-6-((R)-2,2,2-trifluoro-1-(4-(isobutoxycarbonyl)-2-(3-methyl-1H-pyrazol-1-yl)phenyl)ethoxy)pyrimidin-4-yl)-2,8-diazaspiro[4.5]decane-3-carboxylic acid] | < 50
16 | Cc1ccn(-c2cc(C(=O)OC3CCCC3)ccc2[C@@H](Oc2cc(N3CCC4(CC3)CN[C@H](C(=O)O)C4)nc(N)n2)C(F)(F)F)n1 [Example 18f, (S)-8-(2-amino-6-((R)-1-(4-((cyclopentyloxy)carbonyl)-2-(3-methyl-1H-pyrazol-1-yl)phenyl)-2,2,2-trifluoroethoxy)pyrimidin-4-yl)-2,8-diazaspiro[4.5]decane-3-carboxylic acid] | < 50
